Measurements published in patent US11857552B2, “4-[[(7-aminopyrazolo[1,5-a]pyrimidin-5-yl)amino]methyl]piperidin-3-ol compounds as CDK inhibitors” (Carrick Therapeutics Limited, priority 2017, dated 2024).

Tests used:
human CDK2/cycE1 = human CDK2/cycE1 (Homo sapiens (Human), UniProt P24941); assay: CDK2 IC50 (ADP-Glo kinase assay); assay type: biochemical; settings: ATP 20 μM, histone H1 substrate
Protocol: A reaction mixture (6 μL) containing the following components was prepared: 60 mM HEPES (60 mM, pH 7.5), sodium orthovanadate (3 μM), PEG-20000 (50 μg/mL), DTT (1.2 mM), MgCl2 (3 mM), purified human CDK2/cycE1 (4 μg/mL), histone H1 (50 μg/mL), ATP (20 μM) and test compound at the appropriate concentration such that the final concentration of DMSO was 1% w/w. The reaction mixture was incubated at 30° C. for 75 min and then stopped by the addition of ADP-Glo Reagent (6 μL). The reaction was incubated at 25° C. for 1 h to deplete the remaining ATP. Subsequently, Kinase Detection Reagent (12 μL) was added and the reaction was allowed to proceed for 1 h at 25° C. before analysis by luminescence measurement using an Envision Plate Reader (Perkin Elmer).

human CDK7/cycH/MAT1 = human CDK7/cycH/MAT1 (Homo sapiens (Human), UniProt P50613); assay: CDK7 IC50 (ADP-Glo kinase assay); assay type: biochemical; settings: for IC50: ATP 8 μM, CDKtide substrate; for Ratio CDK2/CDK7: CDK2 IC50 / CDK7 IC50 selectivity; for CDK2/CDK7 Selectivity: Improvement vs. REF-001: ratio of CDK2/CDK7 ratios; for CDK7 Potency: Improvement vs. REF-001: ratio of CDK7 IC50 of REF-001 to compound
Protocol: (§1) A reaction mixture (6 μL) containing the following components was prepared: 60 mM HEPES (60 mM, pH 7.5), sodium orthovanadate (3 μM), PEG-20000 (50 μg/mL), DTT (1.2 mM), MgCl2 (3 mM), MnCl2 (3 mM), purified human CDK7/cycH/MAT1 (4 μg/mL), CDKtide (10 μM), ATP (8 μM) and test compound at the appropriate concentration such that the final concentration of DMSO was 1% w/w. The reaction mixture was incubated at 30° C. for 30 min and then stopped by the addition of ADP-Glo Reagent (6 μL). The reaction was incubated at 25° C. for 1 h to deplete the remaining ATP. Subsequently, Kinase Detection Reagent (12 μL) was added and the reaction was allowed to proceed for 1 h at 25° C. before analysis by luminescence measurement using an Envision Plate Reader (Perkin Elmer).

human CDK9/cycK = human CDK9/cycK (Homo sapiens (Human), UniProt P50750); assay: CDK9 IC50 (ADP-Glo kinase assay); assay type: biochemical; settings: ATP 8 μM, CDKtide substrate
Protocol: In addition to those mentioned above for Method 1: • Human CDK9/cycK (Promega, V4104). • CDKtide (SignalChem, C06-58).
as §1, with “mM),” for “mM), MnCl2 (3 mM),”, “human CDK9/cycK (2.5” for “human CDK7/cycH/MAT1 (4”, “CDKtide (35” for “CDKtide (10”, “for 60” for “for 30”

[1] = Human Plasma Protein Binding (PPB), RED device; assay type: in vitro ADME; settings: for Free Fraction: Improvement vs. REF-001: human plasma; for Human PPB / fraction unbound at 240 min, 5 µM: human plasma pH 7.4, 37° C., 240 min
Protocol: Method 4: Human Plasma Protein Binding (PPB)
Materials and solutions: • Human Plasma (Sera Labs, […]). • Bupropion hydrochloride (Sigma, B102). • DPBS (Sigma, D8537). • Formic Acid (Sigma, F0507). • RED Device Single Use (Life Technologies, 90006). • Internal standard solution preparation: A solution of bupropion hydrochloride (50 μL, 10 mM in DMSO) was combined with 0.1% formic acid (1 mL) in acetonitrile (1000 mL).
Once frozen plasma was defrosted and adjusted to pH 7.4 using 1 M lactic acid solution and a portion of this mixture (792 μL) combined with each test compound solution (8 μL, 0.5 mM in DMSO). Portions of the resultant spiked plasma (200 μL) were added to sample compartments of the RED device. DBPS (350 μL) was added to each corresponding buffer compartment. An initial sample (50 μL) was taken and then the RED plate was sealed and incubated at 37° C. for 240 min on an orbital shaker (200 rpm) in a humidified CO2 (5%) atmosphere, alongside plasma and DBPS samples. Each sample well was treated with internal standard solution (300 μL). Aliquots (50 μL) were removed from each buffer well and sample well and replaced with incubated plasma (50 μL) or incubated DPBS (50 μL) respectively. The plate was sealed and centrifuged (3500 rpm, 15 min). Aliquots of the supernatant (100 μL) were combined with water (50 μL) for analysis using a Waters TQS Mass Spectrometer.

MDR1 = MDR1 (Homo sapiens (Human), UniProt P08183); assay: MDCK-MDR1 Efflux Ratio; assay type: in vitro ADME; settings: dog, MDCK-MDR1, pH 7.4, HBSS pH 7.4, 37° C.
Protocol: Method 5: MDCK-MDR1 Efflux Ratio
Materials and solutions: • MDCK/MDR1 Ready™ cell plate (Readycell). • High Glucose Cell Culture Medium (Sigma, D5671) supplemented with: 10% FBS, 1% Glutamine 200 mM, 1% Penicillin (10,000 U/mL)—Streptomycin (10 mg/mL). • HBSS Buffer (Gibco, 14065-049). • Internal standard: 0.5 μM Bupropion in acetonitrile/0.1% formic acid (aq) (1:1 v/v).
HBSS assay buffer was prepared at pH 7.4 and warmed to 37° C. The cell culture media was removed from the Readycell plate. The Basal cells were washed with HBSS buffer (3×225 μL) and the Apical cells were washed with HBSS buffer (3×75 μL). The cells were warmed to 37° C. in a humidified CO2 (5%) atmosphere and shaken at 250 rpm for 30 min. Compound and standard solutions were prepared by diluting each compound (10 μL, 1 mM in DMSO) with HBSS (990 μL). The buffer was carefully removed from the Basal cell plate, followed by the Apical cell plate. HBSS buffer (225 μL) and compound solution (250 μL) were added to the Basal cell plate. An aliquot (25 μL) of the solutions were combined with internal standard (75 μL) and refrigerated for use as the t=0 h sample. HBSS buffer (75 μL) and compound solution (100 μL) were added to the Apical cell plate. An aliquot (25 μL) was taken and processed in the same manner as for the Basal cell plate. […]

BCRP = BCRP (Homo sapiens (Human), UniProt Q9UNQ0); assay: MDCK-BCRP Efflux Ratio; assay type: in vitro ADME; settings: dog, pH 7.4, HBSS pH 7.4, 37° C.
From the text: Method 6: MDCK-BCRP Efflux Ratio
Essentially the same as Method 5, but using MDCK/BCRP Ready™ cell plates (Readycell) in place of MDCK/MDR1 plates.

[2] = system: MCF-7 breast cancer cell line; settings: with 4-hydroxytamoxifen or Faslodex, ERα-positive MCF-7 cells; cited from earlier work

Chain of human CDK9/cycK (P50750 whole entry): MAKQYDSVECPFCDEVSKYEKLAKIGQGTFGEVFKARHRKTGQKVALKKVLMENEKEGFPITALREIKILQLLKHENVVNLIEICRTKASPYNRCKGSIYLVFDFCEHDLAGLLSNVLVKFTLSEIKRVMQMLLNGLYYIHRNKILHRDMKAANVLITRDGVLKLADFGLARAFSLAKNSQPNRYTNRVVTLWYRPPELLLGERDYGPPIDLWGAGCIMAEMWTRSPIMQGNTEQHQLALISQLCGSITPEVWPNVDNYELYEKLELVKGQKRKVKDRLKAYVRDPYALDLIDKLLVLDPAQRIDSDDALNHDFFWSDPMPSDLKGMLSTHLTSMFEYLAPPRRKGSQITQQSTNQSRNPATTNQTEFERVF
Chain of human CDK9/cycK (O75909 whole entry partner): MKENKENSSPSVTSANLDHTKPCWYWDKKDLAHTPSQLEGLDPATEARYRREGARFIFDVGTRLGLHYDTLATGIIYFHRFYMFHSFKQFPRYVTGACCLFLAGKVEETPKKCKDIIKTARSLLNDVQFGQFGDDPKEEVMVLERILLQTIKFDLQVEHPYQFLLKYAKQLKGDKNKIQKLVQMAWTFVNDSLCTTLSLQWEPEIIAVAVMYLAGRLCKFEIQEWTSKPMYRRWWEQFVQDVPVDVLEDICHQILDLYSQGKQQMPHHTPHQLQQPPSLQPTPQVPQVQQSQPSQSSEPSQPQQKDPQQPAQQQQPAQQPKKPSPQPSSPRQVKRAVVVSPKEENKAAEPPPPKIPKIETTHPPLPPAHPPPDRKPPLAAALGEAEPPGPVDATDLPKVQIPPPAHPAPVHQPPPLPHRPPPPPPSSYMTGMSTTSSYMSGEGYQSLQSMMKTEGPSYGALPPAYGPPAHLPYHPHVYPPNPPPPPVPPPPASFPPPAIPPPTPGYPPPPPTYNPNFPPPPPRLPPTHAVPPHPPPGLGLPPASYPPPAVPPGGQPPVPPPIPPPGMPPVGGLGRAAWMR
Chain of human CDK7/cycH/MAT1 (P50613 whole entry): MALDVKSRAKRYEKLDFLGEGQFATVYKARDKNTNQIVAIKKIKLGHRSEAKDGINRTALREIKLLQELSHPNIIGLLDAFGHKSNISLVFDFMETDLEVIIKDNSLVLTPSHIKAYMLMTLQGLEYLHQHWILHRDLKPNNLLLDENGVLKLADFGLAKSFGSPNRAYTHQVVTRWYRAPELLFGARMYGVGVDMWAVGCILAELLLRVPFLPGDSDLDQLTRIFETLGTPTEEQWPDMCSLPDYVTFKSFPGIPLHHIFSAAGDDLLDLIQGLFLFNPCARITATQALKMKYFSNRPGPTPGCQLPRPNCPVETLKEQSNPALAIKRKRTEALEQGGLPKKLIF
Chain of human CDK7/cycH/MAT1 (P51946 whole entry partner): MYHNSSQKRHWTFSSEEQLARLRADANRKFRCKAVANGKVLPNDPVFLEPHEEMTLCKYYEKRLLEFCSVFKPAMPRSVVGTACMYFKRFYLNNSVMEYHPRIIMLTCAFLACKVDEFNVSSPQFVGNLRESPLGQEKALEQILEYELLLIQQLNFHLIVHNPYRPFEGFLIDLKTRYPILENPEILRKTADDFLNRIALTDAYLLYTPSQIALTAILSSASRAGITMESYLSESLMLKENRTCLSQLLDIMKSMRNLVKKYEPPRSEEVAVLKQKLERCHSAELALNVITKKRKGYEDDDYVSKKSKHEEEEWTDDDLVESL
Chain of human CDK7/cycH/MAT1 (P51948 whole entry partner): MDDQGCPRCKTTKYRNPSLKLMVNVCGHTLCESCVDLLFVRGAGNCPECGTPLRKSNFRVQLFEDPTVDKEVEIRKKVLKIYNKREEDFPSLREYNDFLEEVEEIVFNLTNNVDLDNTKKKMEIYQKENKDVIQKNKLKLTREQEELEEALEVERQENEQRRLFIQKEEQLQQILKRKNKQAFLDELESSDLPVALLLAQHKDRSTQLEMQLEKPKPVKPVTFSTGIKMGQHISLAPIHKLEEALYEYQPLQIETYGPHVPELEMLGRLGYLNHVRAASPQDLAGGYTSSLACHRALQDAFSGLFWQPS
Chain of MDR1 (P08183 whole entry): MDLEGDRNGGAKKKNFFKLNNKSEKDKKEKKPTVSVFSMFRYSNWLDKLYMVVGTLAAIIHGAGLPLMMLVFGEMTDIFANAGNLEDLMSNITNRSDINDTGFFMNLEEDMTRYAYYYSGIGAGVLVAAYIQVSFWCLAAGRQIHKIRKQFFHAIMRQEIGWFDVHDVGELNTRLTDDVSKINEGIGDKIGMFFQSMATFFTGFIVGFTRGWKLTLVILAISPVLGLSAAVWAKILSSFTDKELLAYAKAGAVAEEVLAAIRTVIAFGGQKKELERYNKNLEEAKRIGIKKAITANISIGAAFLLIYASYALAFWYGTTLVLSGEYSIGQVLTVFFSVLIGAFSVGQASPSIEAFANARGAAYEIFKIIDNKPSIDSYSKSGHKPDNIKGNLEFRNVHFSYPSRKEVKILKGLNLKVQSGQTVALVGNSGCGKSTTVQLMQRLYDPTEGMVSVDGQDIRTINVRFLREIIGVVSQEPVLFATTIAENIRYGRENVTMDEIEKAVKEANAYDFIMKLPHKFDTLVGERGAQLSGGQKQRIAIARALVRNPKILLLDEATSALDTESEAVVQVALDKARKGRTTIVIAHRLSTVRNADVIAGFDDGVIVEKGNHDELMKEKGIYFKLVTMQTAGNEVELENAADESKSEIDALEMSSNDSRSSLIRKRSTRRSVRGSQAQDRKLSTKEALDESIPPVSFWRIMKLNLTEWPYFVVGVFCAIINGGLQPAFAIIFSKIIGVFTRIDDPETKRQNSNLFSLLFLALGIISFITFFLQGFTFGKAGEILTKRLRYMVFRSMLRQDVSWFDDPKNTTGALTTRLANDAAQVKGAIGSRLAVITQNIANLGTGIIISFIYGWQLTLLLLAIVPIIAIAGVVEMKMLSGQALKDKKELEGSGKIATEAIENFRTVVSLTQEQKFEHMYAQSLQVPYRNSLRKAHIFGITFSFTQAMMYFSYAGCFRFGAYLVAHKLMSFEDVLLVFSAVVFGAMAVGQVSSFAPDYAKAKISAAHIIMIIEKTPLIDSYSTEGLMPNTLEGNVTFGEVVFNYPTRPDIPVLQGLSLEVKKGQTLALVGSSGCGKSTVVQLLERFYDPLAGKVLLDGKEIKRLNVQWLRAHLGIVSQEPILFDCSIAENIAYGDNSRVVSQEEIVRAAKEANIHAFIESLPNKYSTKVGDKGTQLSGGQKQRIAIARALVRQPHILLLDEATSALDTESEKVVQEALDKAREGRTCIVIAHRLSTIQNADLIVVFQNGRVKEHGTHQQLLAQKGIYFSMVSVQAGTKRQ
Chain of BCRP (Q9UNQ0 whole entry): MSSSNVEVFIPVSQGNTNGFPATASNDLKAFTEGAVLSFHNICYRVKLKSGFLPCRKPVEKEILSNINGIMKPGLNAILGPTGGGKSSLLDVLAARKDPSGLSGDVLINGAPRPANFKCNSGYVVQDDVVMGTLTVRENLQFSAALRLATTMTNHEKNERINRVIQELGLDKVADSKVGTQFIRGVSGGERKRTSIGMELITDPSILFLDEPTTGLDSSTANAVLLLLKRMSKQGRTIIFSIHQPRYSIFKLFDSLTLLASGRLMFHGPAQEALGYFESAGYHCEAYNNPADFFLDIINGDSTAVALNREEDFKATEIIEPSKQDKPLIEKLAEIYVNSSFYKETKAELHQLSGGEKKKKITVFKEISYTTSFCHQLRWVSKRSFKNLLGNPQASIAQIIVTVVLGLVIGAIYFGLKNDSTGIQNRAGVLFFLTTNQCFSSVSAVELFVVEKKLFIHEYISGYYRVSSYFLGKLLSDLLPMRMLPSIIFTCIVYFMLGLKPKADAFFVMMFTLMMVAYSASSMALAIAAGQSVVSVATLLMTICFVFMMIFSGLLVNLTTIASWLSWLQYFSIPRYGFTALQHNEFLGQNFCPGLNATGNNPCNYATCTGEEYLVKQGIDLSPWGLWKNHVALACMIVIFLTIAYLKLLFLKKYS

SMILES	IC50 (human CDK2/cycE1) [nM]	IC50 (human CDK7/cycH/MAT1) [nM]	Ratio CDK2/CDK7 (human CDK7/cycH/MAT1)	CDK2/CDK7 Selectivity: Improvement vs. REF-001 (human CDK7/cycH/MAT1) [fold]	CDK7 Potency: Improvement vs. REF-001 (human CDK7/cycH/MAT1) [fold]	IC50 (human CDK9/cycK) [nM]	Free Fraction: Improvement vs. REF-001 [1] [fold]	Human PPB [1] [%]	fraction unbound at 240 min, 5 µM [1]	efflux ratio at 2 h, 10 µM (MDR1)	efflux ratio at 2 h, 10 µM (BCRP)	effect of the combination with an anti-estrogen on growth of breast cancer cells [2]
CCc1cnn2c(NCc3ccccc3F)cc(NC[C@H]3CCNC[C@@H]3O)nc12 [APPAMP-001, (3R,4R)-4-(((3-ethyl-7-((2-fluorobenzyl)amino)pyrazolo[1,5-a]pyrimidin-5-yl)amino)methyl)piperidin-3-ol]	640	13	49	2.54	2.62	200	2.14	85	0.15	2	5	
O[C@H]1CNCC[C@@H]1CNc1cc(NCc2ccccc2)n2ncc(C3CC3)c2n1 [APPAMP-002, (3R,4R)-4-(((7-(benzylamino)-3-cyclopropylpyrazolo[1,5-a]pyrimidin-5-yl)amino)methyl)piperidin-3-ol]	770	33	23	1.20	1.03	210	2.43	83	0.17	5.7	2	
CCc1cnn2c(NCc3cccc(C#N)c3)cc(NC[C@H]3CCNC[C@@H]3O)nc12 [APPAMP-003, 3-(((3-ethyl-5-((((3R,4R)-3-hydroxypiperidin-4-yl)methyl)amino)pyrazolo[1,5-a]pyrimidin-7-yl)amino)methyl)benzonitrile]	190	8.9	21	1.10	3.82	22						
CCc1cnn2c(NCc3cccc(C#N)c3)c(Cl)c(NC[C@H]3CCNC[C@@H]3O)nc12 [APPAMP-004, 3-(((6-chloro-3-ethyl-5-((((3R,4R)-3-hydroxypiperidin-4-yl)methyl)amino)pyrazolo[1,5-a]pyrimidin-7-yl)amino)methyl)benzonitrile]	2400	4.2	571	29.4	8.10	130						
CC(C)c1cnn2c(NCc3ccccc3)cc(NC[C@H]3CCNC[C@@H]3O)nc12 [REF-001, (3R,4R)-4-(((7-(benzylamino)-3-isopropylpyrazolo[1,5-a]pyrimidin-5-yl)amino)methyl)piperidin-3-ol, reference compound]								93	0.07			synergistic effects
